Data published in PMC4999502, “A rheostat mechanism governs the bifurcation of carbon flux in mycobacteria” (Nature Communications, 2016).

Legend:
[1] = target: T1, M. smegmatis ICD (MsmICD) (Mycolicibacterium smegmatis, UniProt A0QSZ3); test: isothermal titration calorimetry; assay type: binding; details: pH 7.5, 25 °C, 10 mM Tris, 10 mM EDTA, 2.5 mM MgCl2; putative allosteric activator; 1:1 single-site fit
T1 construct: gene MSMEG_1654; full ORF, 743 AA; pET-28a(+), C-terminal TEV site and 6-His tag, tag removed by TEV; E. coli BL21(DE3); text says mycobacterial ICD2 forms dimers in solution
Excerpt: isothermal titration calorimetry on M. smegmatis ICD (MsmICD)

[2] = target: T1, M. smegmatis ICD (MsmICD); test: X-ray crystal structure, […] Å; assay type: binding; details: Mn2+ bound; crystals pre-incubated with glyoxylate, MnCl2, isocitrate and NADP+; pH 7.5

Row | Compound | K (M^-1) [1] | X-ray crystal structure, 2.8 Å [2]
1 | O=CC(=O)O [glyoxylate] | 1.10e^6±4.21e^5 | 
2 | O=C(O)C[C@H](C(=O)O)[C@@H](O)C(=O)O (racemic) [isocitrate] |  | We determined the structure of MsmICD bound to isocitrate and manganese
